The source of these data is ChEMBL document CHEMBL1131832, “Synthesis and pharmacological activity of diarylindole derivatives. Cytotoxic agents based on combretastatins” (Bioorg Med Chem Lett, 1999).

The structures appear in SMILES notation.

One assay relates to HT-29. In words: Antineoplastic activity against HT-29 (human colon adenocarcinoma) cell line. The format is functional, cell-based.
The next assay relates to A549. In words: Antineoplastic activity against A-549 (human lung carcinoma) cell line. The class given is functional, cell-based.
A further assay deals with SK-MEL-28. In words: Antineoplastic activity against SK-MEL-28 (human melanoma) cell line. The format is functional, cell-based.
The test system of the next assay is P388. In words: Antineoplastic activity against P-388 (murine lymphoid neoplasm) cell line. The format is functional, cell-based. The settings on record: Mus musculus.
The next assay relates to COLO 205. In words: Compound was evaluated for cytostatic activity against COLO 205 colon cancer cell line. Conditions: Homo sapiens. The format is functional.
A further assay deals with NCI-H522. In words: Compound was evaluated for cytostatic activity against NCI-H522 non-small cell lung cancer cell line. The settings on record: Homo sapiens. The format is functional.
The next assay has as its system OVCAR-3. The assay can be described thus: Compound was evaluated for cytostatic activity against OVCAR-3 ovarian cancer cell line. The class given is functional. The settings on record: Homo sapiens.
The subject of the next assay is SF-295. The assay can be described thus: Compound was evaluated for cytostatic activity against SF-295 CNS cancer cell line. The format is functional. Conditions: Homo sapiens.
For a further assay, the system named is HL-60. The assay can be described thus: Compound was evaluated for cytostatic activity against the HL-60(TB) leukemia cell line. The settings on record: Homo sapiens. The class given is functional.
The next assay deals with SNB-19. In words: Compound was evaluated for cytostatic activity against SNB-19 CNS cancer cell line. The class given is functional. The settings on record: Homo sapiens.
The test system of a further assay is HCT-116. In words: Compound was evaluated for cytostatic activity against […] colon cancer cell line. Conditions: Homo sapiens. The class given is functional.
The subject of a further assay is SF-539. The assay can be described thus: Compound was evaluated for cytostatic activity against SF-539 CNS cancer cell line. The format is functional. The settings on record: Homo sapiens.
For the next assay, the system named is SK-MEL-5. In words: Compound was evaluated for cytostatic activity against SK-MEL-5 melanoma cell line. The settings on record: Homo sapiens. The class given is functional.
Another assay deals with RPMI-8226. The assay can be described thus: Compound was evaluated for cytostatic activity against the RPMI-8226 leukemia cell line. The format is functional. Conditions: Homo sapiens.
The mark [1] stands for this setting: read-out: Log LC50 (the source's name) (converted).

Turning to `COc1cc(CC(=O)c2ccoc2)cc(OC)c1OC`, the IC50 in the assay on HT-29, in the assay on A549, with SK-MEL-28 and in the assay on P388 was 7.24 µM each time.

In the case of `COc1ccc2[nH]c(-c3ccc4c(c3)OCO4)c(-c3cc(OC)c(OC)c(OC)c3)c2c1`, the IC50 was 6.31 µM in the assay on HT-29, 6.31 µM in the assay with A549, 6.31 µM with SK-MEL-28 and 2.29 µM in the assay with P388.

Compound `COc1cc(CCc2ccc3c(c2)OCO3)cc(OC)c1OC` showed an IC50 with SK-MEL-28 of 6.31 µM.

`COc1ccc2[nH]c(-c3ccoc3)c(-c3cc(OC)c(OC)c(OC)c3)c2c1`: the IC50 in the assay on HT-29, in the assay with A549, with SK-MEL-28 and with P388 was 3.24 µM throughout.

Consider `COc1ccc2[nH]c(-c3ccc(C)o3)c(-c3cc(OC)c(OC)c(OC)c3)c2c1`, for which the IC50 was 6.46 µM with HT-29, 5.13 µM with A549, 5.13 µM with SK-MEL-28 and 5.13 µM in the assay with P388.

Regarding `COc1cc(CC(O)c2ccoc2)cc(OC)c1OC` (stereo not given), the IC50 was 72.4 µM in the assay with HT-29, 72.4 µM with A549, 72.4 µM in the assay with SK-MEL-28 and 36.3 µM in the assay on P388.

As for `COc1ccc2[nH]c(-c3ccco3)c(-c3cc(OC)c(OC)c(OC)c3)c2c1`, the GI50 was 0.186 µM in the assay on COLO 205; 0.0759 µM in the assay on NCI-H522; 0.17 µM with OVCAR-3; 0.138 µM with SF-295; 0.0513 µM in the assay on HL-60; 0.0229 µM in the assay with SNB-19. Besides, the GI50 was 0.138 µM with HCT-116, 0.117 µM with SF-539, 0.245 µM with SK-MEL-5 and 0.0912 µM in the assay on RPMI-8226. For the same compound, the CC50 with COLO 205 (setting [1]) was 0.676 µM; with NCI-H522 (setting [1]) it was 3.39 µM; in the assay on OVCAR-3 (setting [1]) it was 7.24 µM; in the assay on SF-295 (setting [1]), 23.4 µM; in the assay with HL-60 (setting [1]), greater than 100 µM; in the assay on SNB-19 (setting [1]), 0.977 µM. In addition, the CC50 with HCT-116 (setting [1]) was 2.51 µM; in the assay with SF-539 (setting [1]), 0.933 µM; with SK-MEL-5 (setting [1]) it was 28.8 µM; with RPMI-8226 (setting [1]) it was 75.9 µM. The IC50 in the assay with HT-29 was 1.32 µM; in the assay on A549, 1.32 µM; with P388, 0.708 µM.

For `COc1cc(CC(O)c2ccc3ccccc3c2)cc(OC)c1OC` (stereo not given), the IC50 with HT-29, in the assay with A549, in the assay with SK-MEL-28 and in the assay on P388 was 2.95 µM in each case.

In the case of `COc1cc(CC(=O)c2ccco2)cc(OC)c1OC`, the IC50 in the assay on HT-29, in the assay on A549, with SK-MEL-28 and with P388 was greater than 100 µM in each case.

In the case of `COc1cc(CC(=O)c2ccc(C)o2)cc(OC)c1OC`, the IC50 was 17.4 µM in the assay on HT-29, 17.4 µM in the assay with A549, 8.71 µM in the assay on SK-MEL-28 and 8.71 µM with P388.

Take `COc1cc(CC(O)c2ccc3c(c2)OCO3)cc(OC)c1OC` (stereo not given): the IC50 in the assay on HT-29, in the assay on A549, with SK-MEL-28 and with P388 was greater than 100 µM throughout.

Regarding `COc1cc(CCc2ccco2)cc(OC)c1OC`, the IC50 in the assay with HT-29, in the assay with A549, in the assay with SK-MEL-28 and with P388 was 19.1 µM throughout.

Regarding `COc1cc(CC(O)c2ccco2)cc(OC)c1OC` (stereo not given), the IC50 with HT-29 was 36.3 µM; in the assay on A549, 36.3 µM; with SK-MEL-28, 36.3 µM; in the assay with P388 it was 18.2 µM.

As for `COc1cc(CCc2ccoc2)cc(OC)c1OC`, the IC50 in the assay on HT-29, in the assay on A549, in the assay on SK-MEL-28 and in the assay with P388 was greater than 100 µM in each case.

Consider `COc1cc(CCc2ccc(C)o2)cc(OC)c1OC`, for which the 50% inhibitory concentration (IC50) with HT-29, in the assay on A549, in the assay on SK-MEL-28 and with P388 was 7.24 µM in each case.

In the case of `COc1cc(CC(=O)c2ccc3ccccc3c2)cc(OC)c1OC`, the IC50 with HT-29 is 30.2 µM; with A549 it was 15.1 µM; in the assay on SK-MEL-28 it was 15.1 µM; in the assay with P388, 15.1 µM.

On to `COc1ccc2[nH]c(-c3ccc4ccccc4c3)c(-c3cc(OC)c(OC)c(OC)c3)c2c1`, for which the IC50 in the assay with HT-29 was 2.24 µM; in the assay on A549, 1.12 µM; in the assay on SK-MEL-28, 1.12 µM; in the assay with P388, 1.12 µM.

Take `COc1cc(CCc2ccc3ccccc3c2)cc(OC)c1OC`: the IC50 with SK-MEL-28 was 0.302 µM.
